Laboratory results published in a melting point compilation (Tetko et al.; mined from patent text by program, amines drawn as free bases though some values may be those of a salt).

**Q.** For `NC(=O)CNC(=O)c1ccc(F)c(-c2ccc(F)c3cc(Cc4cc(F)cc(Cl)c4)sc23)c1`, which melting point is on record?
**A.** Its melting point is 178 to 179 °C.

**Q.** For `Cn1nc(CNS(C)(=O)=O)nc1NCCCOc1cccc(CN2CCCCC2)c1`, which melting point is on record?
**A.** The melting point was 117 to 118 °C.

**Q.** Which melting point does the source give for `CNC(=NC#N)NCCCCc1nccc(NC(N)=NCCOC)n1` here?
**A.** Its melting point is 162 to 165 °C.

**Q.** Which melting point does the source give for `COc1ccc(C(O)CCSc2ccc(S(N)(=O)=O)s2)cc1` (centres undefined) here?
**A.** The melting point was 111 to 112 °C.

**Q.** With `Cc1ccc(S(=O)(=O)N(c2ccc(Cl)cc2[N+](=O)[O-])C(C)C)cc1` as the molecule, how does the melting point read?
**A.** The melting point was 112 to 114 °C.

**Q.** With `O[C@@H]1CN(Cc2ccccc2)C[C@H]1Sc1ccccc1` (relative stereo) as the molecule, how does the melting point read?
**A.** Its melting point is 97 to 99 °C.

**Q.** Which melting point does the source give for `CCCCc1ncc2ccccc2c1Cc1ccc(C(=O)O)cc1` here?
**A.** Its melting point is 212 °C.

**Q.** Which melting point does the source give for `Cc1cc(C)c(/C=C/C=O)c(Br)c1` here?
**A.** Its melting point is 99 to 103 °C.

**Q.** With `O=C1c2ccccc2C(=O)C2(CC3CCCC(C(F)(F)F)C3)OC12` (centres undefined) as the molecule, how does the melting point read?
**A.** Its melting point is 85 °C.

**Q.** Which melting point does the source give for `O=C1CCN(c2ccccc2)N1CN1C(=O)c2ccccc2S1(=O)=O` here?
**A.** The melting point was 209 to 213 °C.

**Q.** With `Cc1cc(C(=O)OC(C)(C)C)ccc1[N+](=O)[O-]` as the molecule, how does the melting point read?
**A.** The melting point was 56 to 58 °C.

**Q.** With `O=CCCCOC(c1ccccc1)(c1ccccc1)c1ccccc1` as the molecule, how does the melting point read?
**A.** Its melting point is 62 to 65 °C.

**Q.** Which melting point does the source give for `O=C(NC1CC1)c1c(NC(=O)c2cc(C(F)(F)F)nn2-c2ncccc2Cl)ccc2cc[nH]c12` here?
**A.** Its melting point is 239 to 241 °C.

**Q.** For `N#C/C=C1\CCc2cc(Br)c3c(c21)CCO3`, which melting point is on record?
**A.** Its melting point is 200 to 203 °C.

**Q.** With `CCCSc1ncc(CC(N=C(c2ccccc2)c2ccccc2)C(=O)OCC)n1Cc1ccccc1Cl` (centres undefined) as the molecule, how does the melting point read?
**A.** Its melting point is 178 to 181 °C.

**Q.** With `Cc1cc(-c2c(Cl)ccc(C(=O)O)c2Cl)on1` as the molecule, how does the melting point read?
**A.** Its melting point is 154 to 156 °C.

**Q.** For `O=C(NCCCCOc1ccc(-n2ccnc2)cc1)c1ccc(Br)cc1`, which melting point is on record?
**A.** The melting point was 140 to 141 °C.

**Q.** For `O=C(O)c1cc2c(cn1)[nH]c1ccccc12`, which melting point is on record?
**A.** Its melting point is 307 to 309 °C.

**Q.** For `CCCc1nnc(/C=C/c2nc(-c3ccccc3)oc2COc2ccc(OCc3nc(-c4ccccc4)oc3C)cc2)o1`, which melting point is on record?
**A.** The melting point was 119 to 120 °C.

**Q.** For `CC(C)(CO)Cc1ccc(CC(C)(C)CO)cc1`, which melting point is on record?
**A.** The melting point was 104 to 105 °C.

**Q.** With `COc1ccnc(CCc2nc3cc(C)cnc3[nH]2)c1` as the molecule, how does the melting point read?
**A.** The melting point was 150 to 152 °C.

**Q.** Which melting point does the source give for `Nc1ccc(C(CC2CCCC2)C(=O)O)cc1` (centres undefined) here?
**A.** The melting point was 167 to 169 °C.

**Q.** For `CC1(C)CN(c2ncc(C(=O)N(CC3CC3)c3cc(C(F)(F)F)ccc3F)c(N)n2)C(=O)N1`, which melting point is on record?
**A.** The melting point was 188 to 189 °C.

**Q.** With `COc1ccc(C=CC(=O)O)cc1-c1cc2c(cc1OCc1cccc(O)c1)C(C)(C)CCC2(C)C` as the molecule, how does the melting point read?
**A.** Its melting point is 131 to 133 °C.

**Q.** With `COCCOCCCCC(=O)c1ccc(Br)cc1` as the molecule, how does the melting point read?
**A.** The melting point was 25.5 to 26.5 °C.

**Q.** For `CCCc1nn(-c2ccc(C(F)(F)F)cn2)cc1CCCOc1ccc(CC(=O)O)c(OC)c1`, which melting point is on record?
**A.** Its melting point is 135 to 136 °C.

**Q.** With `Cc1cc(C)c(COc2cccnc2N)c(C)c1` as the molecule, how does the melting point read?
**A.** Its melting point is 160 to 166 °C.

**Q.** Which melting point does the source give for `CCCCCCCCCCCCCCOC(=O)CCCCc1cc(OC(C)=O)c(OC(C)=O)c([N+](=O)[O-])c1` here?
**A.** The melting point was 46 to 47 °C.

**Q.** For `CC(=O)C1CCC2C3CCC4=CC(=O)CCC4(C)C3C(Cl)CC12C` (centres undefined), which melting point is on record?
**A.** Its melting point is 185 to 188 °C.

**Q.** For `BrCCCCCCCCCCCCCCCCCCCCBr`, which melting point is on record?
**A.** Its melting point is 62 °C.

**Q.** Which melting point does the source give for `Cc1oc(-c2ccccc2)nc1COc1ccc(COc2ncccc2C=O)cc1` here?
**A.** The melting point was 97 to 98 °C.

**Q.** With `Nc1nc2c(s1)CCN(CCC=Cc1ccccc1)CC2` as the molecule, how does the melting point read?
**A.** Its melting point is 157 to 158 °C.

**Q.** With `Cc1ccc(NC(=O)c2ccc(C(=O)Nc3ccccc3N)s2)cc1Nc1nccc(-c2cccnc2)n1` as the molecule, how does the melting point read?
**A.** The melting point was 280 °C.

**Q.** Which melting point does the source give for `CCCCCCCCc1ccc(-c2ccc(O)c(F)c2)nc1` here?
**A.** The melting point was 73.5 to 74.6 °C.

**Q.** Which melting point does the source give for `Cn1nc2c(oc3ccccc32)c1NC=O` here?
**A.** The melting point was 184 to 187 °C.

**Q.** With `c1ccc(-c2nc(-c3ccc(OCCCn4ccnc4)cc3)no2)cc1` as the molecule, how does the melting point read?
**A.** The melting point was 132 to 133 °C.

**Q.** Which melting point does the source give for `Nc1nc(N)c(-c2cc(Cl)cc(Cl)c2Cl)c(CF)n1` here?
**A.** The melting point was 215 to 217 °C.

**Q.** With `CCOC(=O)CC(=CNc1ncccc1C)C(=O)OCC` as the molecule, how does the melting point read?
**A.** Its melting point is 62 °C.

**Q.** Which melting point does the source give for `O=C1c2ccccc2C(=O)N1CCOc1cccc2c1SCCC2` here?
**A.** Its melting point is 166 °C.

**Q.** With `N#Cc1ccc2c(c1)NC(=O)C2c1ncnc2c1cnn2C1CCCC1` (centres undefined) as the molecule, how does the melting point read?
**A.** The melting point was 335 to 338 °C.

**Q.** For `Oc1ncnc2c1c(-c1ccco1)nn2Cc1ccccc1`, which melting point is on record?
**A.** The melting point was 242 °C.

**Q.** Which melting point does the source give for `Cc1cc(-c2ccc(Cl)cc2)nc2c(I)cnn12` here?
**A.** Its melting point is 147 to 148 °C.

**Q.** For `N=c1[nH]c2ccc(Cl)cc2c2ncnn12`, which melting point is on record?
**A.** The melting point was 279 to 280 °C.

**Q.** For `Cc1nc(Br)c(C=O)n1Cc1cc2c(cc1Cl)OCO2`, which melting point is on record?
**A.** Its melting point is 141 °C.

**Q.** Which melting point does the source give for `COC(=O)c1ccc(C(=O)Nc2ccc3ccc(Cl)nc3n2)cc1` here?
**A.** Its melting point is 275 °C.

**Q.** Which melting point does the source give for `O=C1OCc2c1cc1ccc3c(c1c2-c1ccc(Cl)cc1)OCO3` here?
**A.** The melting point was 225 to 227 °C.

**Q.** Which melting point does the source give for `OC/C=C/c1ccc(O)cc1` here?
**A.** Its melting point is 116 to 118 °C.

**Q.** Which melting point does the source give for `CCCc1ccc2nc(Cl)c(S(N)(=O)=O)n2n1` here?
**A.** The melting point was 174 to 175 °C.

**Q.** With `Clc1cc(Cl)c2cccc3c2c1N=C3NCCCn1ccnc1` as the molecule, how does the melting point read?
**A.** Its melting point is 182 to 183 °C.

**Q.** With `CCCCN(Cc1ccc(-c2ccccc2-c2nnnn2C(c2ccccc2)(c2ccccc2)c2ccccc2)cc1)c1ncncc1C(=O)OCC` as the molecule, how does the melting point read?
**A.** The melting point was 142 to 144 °C.

**Q.** For `N#CC1CN1C(=O)NC(=O)c1cccc([N+](=O)[O-])c1` (centres undefined), which melting point is on record?
**A.** The melting point was 156 to 158 °C.

**Q.** With `COc1ccc(-c2nc(CN)no2)cc1` as the molecule, how does the melting point read?
**A.** Its melting point is 66 to 68 °C.

**Q.** With `COc1ccc(C#Cc2cc(OC)c(OC)cc2C=O)cc1OC` as the molecule, how does the melting point read?
**A.** Its melting point is 148 to 149 °C.

**Q.** Which melting point does the source give for `CC1(C2CCC3C4CCC5CC6OC6CC5(C)C4C(=O)CC32C)OCCO1` (centres undefined) here?
**A.** Its melting point is 159 to 160 °C.

**Q.** With `CCOC(=O)C1=CNC2=C(C(=O)CCC2)C1c1nccs1` (centres undefined) as the molecule, how does the melting point read?
**A.** The melting point was 239 to 240 °C.

**Q.** For `COc1cccc(C(CN(C)C)c2nnc3n2-c2ccc(Cl)cc2C(c2ccccc2)=NC3)c1` (centres undefined), which melting point is on record?
**A.** The melting point was 139 to 140 °C.

**Q.** With `COc1nc(=O)c(Cc2ccc(C)nc2)c[nH]1` as the molecule, how does the melting point read?
**A.** The melting point was 145 to 147 °C.

**Q.** For `Nc1nc(-c2ccc(F)cc2)cn1N`, which melting point is on record?
**A.** Its melting point is 227 to 230 °C.

**Q.** Which melting point does the source give for `CCOC(=O)C(=O)Nc1cc(Cl)ccc1[N+](=O)[O-]` here?
**A.** Its melting point is 103 to 104 °C.

**Q.** With `CCOC(=O)c1cn(Cc2ccccc2OC)c2sc(-c3ccc(NC(C)=O)cc3)c(CN(C)Cc3ccccc3)c2c1=O` as the molecule, how does the melting point read?
**A.** Its melting point is 161 to 163 °C.

**Q.** With `CC(=O)OC(C(=O)O)(C(=O)N(C(C)=O)C(C)=O)c1ccc(Cl)c(C)c1` (centres undefined) as the molecule, how does the melting point read?
**A.** Its melting point is 169 to 171 °C.

**Q.** With `CC(C)(C)OC(=O)N1CCC[C@@H](O)[C@H](C(=O)O)C1` as the molecule, how does the melting point read?
**A.** Its melting point is 98.5 to 102 °C.

**Q.** With `Oc1cc(Cl)c2c(C34CC5CC(CC(C5)C3)C4)noc2c1` as the molecule, how does the melting point read?
**A.** The melting point was 215 °C.

**Q.** Which melting point does the source give for `COc1cc2c(cc1OCc1ccccc1)CCCC(C(=O)O)=C2` here?
**A.** The melting point was 163 to 165 °C.

**Q.** For `Cc1ccc(C23CN(C)CC2CC32SCCS2)cc1` (centres undefined), which melting point is on record?
**A.** The melting point was 81 to 86 °C.

**Q.** Which melting point does the source give for `CCOC(=O)N1CCC(N(C)C(=O)c2ccc(Cl)c(Cl)c2)C12CCCCC2` (centres undefined) here?
**A.** The melting point was 57 to 60 °C.

**Q.** For `COC(=O)Nc1nc2cc(S(=O)CC3CCCCC3)ccc2[nH]1` (centres undefined), which melting point is on record?
**A.** The melting point was 272 to 274 °C.

**Q.** With `C=CCn1c(=O)c2c(nc(/C=C/c3ccc(O)c(OC)c3)n2C)n(CC=C)c1=O` as the molecule, how does the melting point read?
**A.** Its melting point is 202 to 203 °C.

**Q.** With `COC(=O)C1=C(C)NC(=O)NC1c1cccc(N)c1` (centres undefined) as the molecule, how does the melting point read?
**A.** Its melting point is 222 to 234 °C.

**Q.** Which melting point does the source give for `CCOC(=O)Cc1ccc(SCc2ccc(NC(C)=O)cc2C(=O)O)cc1` here?
**A.** Its melting point is 170 °C.

**Q.** With `Cc1cccc(NCC2=NCCN2C(=O)Nc2ccccc2)c1C` as the molecule, how does the melting point read?
**A.** The melting point was 137 °C.

**Q.** Which melting point does the source give for `COc1cc2c(cc1OC)C(CBr)OCCC2` (centres undefined) here?
**A.** Its melting point is 44 to 45 °C.

**Q.** Which melting point does the source give for `COc1ccc(-c2oc(C(F)(F)F)nc2-c2ccc(S(N)(=O)=O)cc2)cc1F` here?
**A.** Its melting point is 150 to 151 °C.

**Q.** For `O=C(O)c1ccc(CNC(=O)C(CS)Cc2ccccc2)cc1` (centres undefined), which melting point is on record?
**A.** The melting point was 156 to 159 °C.
